Test results published in US20240376108A1, “SALT AND CRYSTAL FORM OF PYRAZOLE-CONTAINING POLYCYCLIC DERIVATIVE, AND PREPARATION METHOD THEREFOR AND USE THEREOF” (Shanghai Hansoh Biomedical Co., Ltd., priority 2021, published 2024).

Columns and labels:
[1] = Hygroscopicity experiment (DVS); type: physicochemical; settings: 25° C.
From the text: 7.1 Hygroscopicity experiment of crystal forms of different salts of compound 2-(2-cyano-5-oxo-8-(trifluoromethyl)pyrazolo[1,5-a]pyrido[3,2-e]pyrimidin-4(5H)-yl)-N-(5-fluoropyridin-2-yl)acetamide
7.1.1 Experimental objective: To investigate the hygroscopicity of crystal forms of different salts of compound 2-(2-cyano-5-oxo-8-(trifluoromethyl)pyrazolo[1,5-a]pyrido[3,2-e]pyrimidin-4(5H)-yl)-N-(5-fluoropyridin-2-yl)acetamide at different relative humidity, so as to provide a basis for storage.
7.1.2 Experimental protocol: Crystal forms of different salts of the compound were placed in saturated water vapor with different relative humidity to achieve dynamic equilibrium between the compound and water vapor, and the percentage of hygroscopic weight gain of the compound after equilibrium was calculated.

[2] = Solid stability experiment (high temperature, high humidity, high temperature and high humidity); type: physicochemical
Procedure: 4.1.1 Experimental objective: To investigate the physical and chemical stability of the crystal form of the compound under the conditions of high temperature, high humidity, as well as high temperature and high humidity, so as to provide a basis for crystal form screening and storage of the crystal form of the compound.
The content of the salt was determined by HPLC using the external standard method, and the change of relevant substances was calculated by using the chromatographic peak area normalization method.

[3] = Pharmacokinetic assay of the salt forms in rats (10 mg/kg); type: in vivo; settings: SD rats
Procedure: 2.3 Pharmacokinetic assay of the methanesulfonate in rats
2.3.1. Study objective: SD rats were used as test animals. The pharmacokinetic behavior of various salt forms of 2-(2-cyano-5-oxo-8-(trifluoromethyl)pyrazolo[1,5-a]pyrido[3,2-e]pyrimidin-4(5H)-yl)-N-(5-fluoropyridin-2-yl)acetamide was studied in rat body (plasma) by orally administration at a dose of 10 mg/kg.
2.3.2.4 Administration: After an overnight fast, male SD rats (3 rats per group) were administered p.o. with the test compound at a dose of 10 mg/kg and a volume of 10 mL/kg.
2.3.2.5 Sample collection: 0.2 mL of blood was taken from the jugular vein of the rat before administration and at 0, 0.5, 1, 2, 4, 6, 8 and 24 hours after administration. The samples were stored in EDTA-K2 tubes, and centrifuged for 6 minutes at 4° C., 6000 rpm to separate the plasma. The plasma samples were stored at −80° C.
1) 160 μL of acetonitrile was added to 40 μL of the plasma sample for precipitation, and then the mixture was centrifuged at 3500×g for 5 to 20 minutes.
2) After the above process, 100 μL of the supernatant was taken to analyze the concentration of the test compound by LC/MS/MS.
2.3.2.7 Liquid chromatography analysis • Liquid chromatography condition: Shimadzu LC-20AD pump • Mass spectrometry condition: AB Sciex API 4000 mass spectrometer • Chromatographic column: phenomenex Gemiu 5 um C18 50×4.6 mm • Mobile phase: Eluent A was 0.1% formic acid in water, and Eluent B was acetonitrile • Flow rate: 0.8 mL/min • Elution time: 0-4.0 minutes, the eluent is as follows:
The main parameters of pharmacokinetics were calculated by WinNonlin 8.2.

[4] = Metabolic stability in liver microsome (rat); type: in vitro ADME; settings: rat liver microsome, 60 min
Procedure: (§1) Test Example 5. Assay of Metabolic Stability in Liver Microsome
(§2) 1. Experimental objective: The objective of the experiment is to determine the stability of the compounds of the Examples in liver microsome of mouse, rat, dog and human.
(§3) 2.1 Formulation of the working solution of the compound: Formulation of the working solution of the compound: The stock solution of the compound was added to phosphate buffer, and the final concentration was 20 μM.
(§4) 2.2 Formulation of the working solution of liver microsome: Liver microsome was diluted with 100 mM phosphate buffer to obtain a final concentration of 0.625 mg/mL.
(§5) 2.3 Formulation of NADPH and UDPGA: NADPH (reduced nicotinamide adenine dinucleotide phosphate) and UDPGA (uridine diphosphate glucuronic acid) were weighed respectively, followed by addition of 100 mM phosphate buffer. The final concentrations were 20 mM.
(§6) 2.4 Formulation of the channel-forming reagent: 1 mg of Alamethicin was weighed, to which 200 μL of DMSO was added to obtain a 5 mg/mL solution. The solution was diluted with phosphate buffer to obtain a final concentration of 50 μg/mL.
(§7) 2.5 Formulation of the reaction stop solution: Stop solution: Cold acetonitrile containing 100 ng/mL labetalol hydrochloride and 400 ng/mL tolbutamide as internal standards.
(§8) 2.6 Incubation procedure: 400 μL of the prepared liver microsome, 25 μL of the working solution of the compound and 25 μL of Alamethicin were added to a 96-well plate successively, which was then pre-incubated at 37° C. for 10 minutes. 50 μL of the prepared NADPH/UDPGA was added to initiate the reaction, and the plate was incubated at 37° C. The total volume of the reaction system was 500 μL. The final contents of the components were as follows:
(§9) 2.7.1 Chromatographic conditions: • Instrument: Shimadzu LC-30 AD; Chromatographic column: XBridge® C18 (50*4.6 mm, particle size: 5 μm); • Mobile phase: A: 0.1% formic acid solution, B: methanol • Eluent gradient: 0.2˜1.6 min 5% A to 95% A, 3.0˜3.1 min 95% A to 5% A • Running time: 4.0 min.
(§10) 2.7.2 Mass spectrometry conditions: • Instrument: API5500 liquid chromatography-mass spectrometer, AB Sciex; • Ion source: Electrospray ionization source (ESI); Drying gas: N2, temperature: 500° C.; • Electrospray voltage: 5000V; Detection method: Positive ion detection; • Scanning mode: Mode of reaction monitoring (MRM).

[5] = Metabolic stability in liver microsome (human); type: in vitro ADME
Procedure: as §1, §2, §3, §4, §5, §6, §7, §8, §9, §10

[6] = Metabolic stability in liver microsome (mouse); type: in vitro ADME
Procedure: as §1, §2, §3, §4, §5, §6, §7, §8, §9, §10

[7] = Cycle 1, target relative humidity 0.0%
[8] = Cycle 1, target relative humidity 10.0%
[9] = Cycle 1, target relative humidity 20.0%
[10] = Cycle 1, target relative humidity 30.0%
[11] = Cycle 1, target relative humidity 40.0%
[12] = Cycle 1, target relative humidity 50.0%
[13] = Cycle 1, target relative humidity 60.0%
[14] = Cycle 1, target relative humidity 70.0%
[15] = Cycle 1, target relative humidity 80.0%
[16] = Cycle 1, target relative humidity 90.0%
[17] = Cycle 1, target relative humidity 95.0%
[18] = Cycle 2, target relative humidity 0.0%
[19] = Cycle 2, target relative humidity 10.0%
[20] = Cycle 2, target relative humidity 20.0%
[21] = Cycle 2, target relative humidity 30.0%
[22] = Cycle 2, target relative humidity 40.0%
[23] = Cycle 2, target relative humidity 50.0%
[24] = Cycle 2, target relative humidity 60.0%
[25] = Cycle 2, target relative humidity 70.0%
[26] = Cycle 2, target relative humidity 80.0%
[27] = Cycle 2, target relative humidity 90.0%
[28] = Cycle 2, target relative humidity 95.0%
[29] = High humidity (92.5% RH), Day 7
[30] = High humidity (92.5% RH), Day 14
[31] = High temperature (60° C.), Day 7
[32] = High temperature (60° C.), Day 14
[33] = High temperature and high humidity (50° C.&75% RH), Day 7
[34] = High temperature and high humidity (50° C.&75% RH), Day 14

## CCS(=O)(=O)O.N#Cc1cc2n(CC(=O)Nc3ccc(F)cn3)c(=O)c3ccc(C(F)(F)F)nc3n2n1 [Ethanesulfonate (crystal form A), 2-(2-cyano-5-oxo-8-(trifluoromethyl)pyrazolo[1,5-a]pyrido[3,2-e]pyrimidin-4(5H)-yl)-N-(5-fluoropyridin-2-yl)acetamide ethanesulfonate]
[1]; [7]
  % percentage of mass change, Desorption: −0.012%
  % percentage of mass change, Sorption: 0.000%
[1]; [8]
  % percentage of mass change, Desorption: 0.042%
  % percentage of mass change, Sorption: 0.051%
[1]; [9]
  % percentage of mass change, Desorption: 0.090%
  % percentage of mass change, Sorption: 0.094%
[1]; [10]
  % percentage of mass change, Desorption: 0.137%
  % percentage of mass change, Sorption: 0.139%
[1]; [11]
  % percentage of mass change, Desorption: 0.192%
  % percentage of mass change, Sorption: 0.183%
[1]; [12]
  % percentage of mass change, Desorption: 0.260%
  % percentage of mass change, Sorption: 0.231%
[1]; [13]
  % percentage of mass change, Desorption: 0.334%
  % percentage of mass change, Sorption: 0.297%
[1]; [14]
  % percentage of mass change, Desorption: 0.442%
  % percentage of mass change, Sorption: 0.401%
[1]; [15]
  % percentage of mass change, Desorption: 0.625%
  % percentage of mass change, Sorption: 0.572%
[1]; [16]
  % percentage of mass change, Desorption: 1.135%
  % percentage of mass change, Sorption: 1.025%
[1]; [17]
  % percentage of mass change, Desorption: 1.927%
  % percentage of mass change, Sorption: 1.927%
[1]; [18]
  % percentage of mass change, Desorption: −0.016%
  % percentage of mass change, Sorption: −0.012%
[1]; [19]
  % percentage of mass change, Desorption: 0.035%
  % percentage of mass change, Sorption: 0.037%
[1]; [20]
  % percentage of mass change, Desorption: 0.083%
  % percentage of mass change, Sorption: 0.083%
[1]; [21]
  % percentage of mass change, Desorption: 0.130%
  % percentage of mass change, Sorption: 0.127%
[1]; [22]
  % percentage of mass change, Desorption: 0.184%
  % percentage of mass change, Sorption: 0.174%
[1]; [23]
  % percentage of mass change, Desorption: 0.250%
  % percentage of mass change, Sorption: 0.228%
[1]; [24]
  % percentage of mass change, Desorption: 0.321%
  % percentage of mass change, Sorption: 0.295%
[1]; [25]
  % percentage of mass change, Desorption: 0.421%
  % percentage of mass change, Sorption: 0.388%
[1]; [26]
  % percentage of mass change, Desorption: 0.584%
  % percentage of mass change, Sorption: 0.541%
[1]; [27]
  % percentage of mass change, Desorption: 1.020%
  % percentage of mass change, Sorption: 0.942%
[1]; [28]
  % percentage of mass change, Desorption: 1.683%
  % percentage of mass change, Sorption: 1.683%
[2]; 60° C., 7 and 14 days
  solid stability under high temperature: stable
[2]; 92.5% RH, 7 and 14 days
  solid stability under high humidity: stable
[2]; [29]
  % increase of total impurities: <0.1%
  % maximum increase of single impurity: <0.1%
[2]; [30]
  % increase of total impurities: <0.1%
  % maximum increase of single impurity: <0.1%
[2]; [31]
  % increase of total impurities: >0.2%
  % maximum increase of single impurity: <0.1%
[2]; [32]
  % increase of total impurities: <0.1%
  % maximum increase of single impurity: <0.1%
[2]; [33]
  % increase of total impurities: >0.3%
  % maximum increase of single impurity: >0.1%
[2]; [34]
  % increase of total impurities: >0.2%
  % maximum increase of single impurity: >0.1%
[3]; 10 mg/kg
  exposure AUC and maximum plasma concentration Cmax compared with the free base: superior
[3]; male, rat, po, p.o. 10 mg/kg, plasma, vehicle 0.5% HPMC, read-out: Area under curve AUC0-t
  AUC(0-t): 30300 ng·h/mL
[3]; male, rat, po, p.o. 10 mg/kg, plasma, vehicle 0.5% HPMC, read-out: Average residence time MRT0-∞
  MRT inf: 4.9 h
[3]; male, rat, po, p.o. 10 mg/kg, plasma, vehicle 0.5% HPMC, read-out: Half life t1/2 (converted)
  half-life: 2.6 h
[3]; male, rat, po, p.o. 10 mg/kg, plasma, vehicle 0.5% HPMC, read-out: Peak time tmax
  Tmax: 4 h
[3]; male, rat, po, p.o. 10 mg/kg, plasma, vehicle 0.5% HPMC, read-out: Plasma concentration Cmax
  Cmax: 3840 ng/mL

## CCc1cc2n(CC(=O)Nc3ccc(F)cn3)c(=O)c3ccc(C(F)(F)F)nc3n2n1 [Example 12, 2-(2-Ethyl-5-oxo-8-(trifluoromethyl)pyrazolo[1,5-a]pyrido[3,2-e]pyrimidin-4(5H)-yl)-N-(5-fluoropyridin-2-yl)acetamide]
[4]
  Rat Remaining (%, 60 min): 104.4%
[5]; human liver microsome 0.5 mg/mL, compound 1 μM, NADPH/UDPGA
  Human t1/2: ∞
[5]; human liver microsome, 60 min
  Human Remaining (%, 60 min): 113.9%
[6]
  Mouse Remaining (%, 60 min): 81.3%
